From patent US10472688B2, “Compositions and methods for producing podophyllotoxin derivatives” (The Board of Trustees of the Leland Stanford Junior …, priority 2015, dated 2019) come the findings set out here.

Series [1] addresses T1, (−)-pluviatolide O-methyltransferase (OMT3) (Sinopodophyllum hexandrum, UniProt A0A0N9HMN6).
T1 construct: 6xHis (N); made in house; host or cells: E. coli BL21 (DE3), pET28a
T1 sequence (A0A0N9HMN6 1-372): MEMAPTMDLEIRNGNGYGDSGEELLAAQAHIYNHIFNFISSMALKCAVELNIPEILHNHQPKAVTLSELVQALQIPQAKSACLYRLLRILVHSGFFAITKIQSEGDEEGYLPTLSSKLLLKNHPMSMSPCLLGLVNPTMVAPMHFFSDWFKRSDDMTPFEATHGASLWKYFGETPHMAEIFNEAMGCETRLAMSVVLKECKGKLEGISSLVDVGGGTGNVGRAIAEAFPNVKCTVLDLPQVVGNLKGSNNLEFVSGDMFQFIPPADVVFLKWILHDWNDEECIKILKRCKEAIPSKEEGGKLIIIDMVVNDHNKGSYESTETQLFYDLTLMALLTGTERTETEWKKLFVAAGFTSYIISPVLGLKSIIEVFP
The series is described as follows: In vitro characterization of recombinant OMT3 (steady state kinetics, substrate specificity). The class given is biochemical, P. hexandrum. To be noted: for acceptance as substrate by OMT3: (+)-pinoresinol 400 μM, (−)-matairesinol 40 μM, (−)-arctigenin 40 μM, quenched after 2 h.

A further series deals with T2, 2-ODD (Sinopodophyllum hexandrum, UniProt A0A0N9HQ36).
T2 construct: 6xHis (C); made in house; host or cells: E. coli BL21 (DE3), pET24b
The series is described as follows: 2-ODD enzyme assays. To be noted: 5 μg/mL 2-ODD, 2-oxoglutarate, FeSO4, 30 μM substrate, 30° C., 2 h. Format: biochemical, P. hexandrum. The procedure:
The above protocol was also followed for the expression and purification of 2-ODD from BL21 (DE3) E. coli harboring pET24b:2-ODD except for the following changes: the 2 L culture at OD600=0.6 was cooled to 16° C. and induced with 100 μM IPTG. The culture was further incubated at 16° C. for 24 h and cooled in ice water before proceeding with purification.
Assays lacking enzyme or 2-oxoglutarate served as negative controls.
(§1) Total reaction volumes were 50 μL.

A further series concerns the target T3, CYP71BE54 (Sinopodophyllum hexandrum, UniProt A0A0N9HT29).
T3 sequence (A0A0N9HT29 1-507): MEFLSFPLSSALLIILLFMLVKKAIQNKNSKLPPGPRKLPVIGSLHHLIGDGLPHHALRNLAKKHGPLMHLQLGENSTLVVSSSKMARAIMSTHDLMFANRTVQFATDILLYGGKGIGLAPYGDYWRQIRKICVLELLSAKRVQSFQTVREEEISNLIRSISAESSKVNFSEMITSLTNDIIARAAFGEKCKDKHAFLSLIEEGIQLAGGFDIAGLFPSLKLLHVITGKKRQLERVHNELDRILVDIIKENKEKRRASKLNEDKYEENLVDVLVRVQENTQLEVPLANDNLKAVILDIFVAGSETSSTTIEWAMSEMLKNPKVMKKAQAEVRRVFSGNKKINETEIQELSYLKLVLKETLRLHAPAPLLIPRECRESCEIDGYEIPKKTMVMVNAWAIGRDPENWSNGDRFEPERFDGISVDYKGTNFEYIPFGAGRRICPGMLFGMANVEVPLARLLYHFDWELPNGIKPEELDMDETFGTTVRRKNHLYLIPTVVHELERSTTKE
The experiment in a line: CYP71BE54-microsome assays. To be noted: 4 mg/mL microsomes, 1 mM NADPH, 50 μM substrate, 30° C., 2 h. On the procedure: as §1

The subject of another series is OMT1. The series is described as follows: OMT1 enzyme assays. The class given is biochemical, P. hexandrum. The settings on record: 10 μg/mL OMT1, 1 mM SAM, 30 or 50 μM substrate, 30° C., 2 h. On the procedure:
The above protocol was also followed for the expression and purification of OMT1 from BL21 (DE3) E. coli harboring pET24b:OMT1.
Assay lacking SAM served as negative control.
as §1

The next series addresses T4, CYP71CU1 (Sinopodophyllum hexandrum, UniProt A0A0N9HTU1).
T4 sequence (A0A0N9HTU1 1-493): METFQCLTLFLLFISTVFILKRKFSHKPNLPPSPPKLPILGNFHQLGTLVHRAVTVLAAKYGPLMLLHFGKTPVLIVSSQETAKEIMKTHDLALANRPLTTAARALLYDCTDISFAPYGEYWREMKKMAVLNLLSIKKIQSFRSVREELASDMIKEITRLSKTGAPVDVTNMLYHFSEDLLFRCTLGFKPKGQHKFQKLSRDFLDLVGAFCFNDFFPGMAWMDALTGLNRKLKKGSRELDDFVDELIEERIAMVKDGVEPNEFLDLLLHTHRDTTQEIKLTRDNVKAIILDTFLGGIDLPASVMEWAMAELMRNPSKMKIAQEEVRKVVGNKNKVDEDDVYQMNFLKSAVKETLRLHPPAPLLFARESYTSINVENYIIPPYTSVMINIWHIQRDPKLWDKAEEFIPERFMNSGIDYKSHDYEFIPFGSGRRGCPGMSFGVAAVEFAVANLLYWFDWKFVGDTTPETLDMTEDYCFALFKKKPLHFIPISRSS
The series is described as follows: CYP71CU1-microsome assays. To be noted: 1 mg/mL microsomes, 1 mM NADPH, 30 or 50 μM substrate, 30° C., 2 h.

T2 sequence (A0A0N9HQ36 whole entry): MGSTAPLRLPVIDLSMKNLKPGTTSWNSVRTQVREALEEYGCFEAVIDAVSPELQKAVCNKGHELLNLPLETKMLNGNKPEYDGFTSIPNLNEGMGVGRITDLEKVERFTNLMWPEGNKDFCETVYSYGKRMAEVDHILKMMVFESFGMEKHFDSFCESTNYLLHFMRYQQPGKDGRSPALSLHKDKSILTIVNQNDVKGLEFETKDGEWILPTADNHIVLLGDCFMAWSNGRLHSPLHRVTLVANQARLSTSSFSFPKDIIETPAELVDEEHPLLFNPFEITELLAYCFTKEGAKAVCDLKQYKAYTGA
Procedure for CYP71CU1: Yeast growth, induction and microsome preparation were performed according to Pompon et al. Microsomes enriched with P450 were isolated in 50 mM Tris-Cl, pH=7.4, 20% glycerol, 1 mM EDTA, flash-frozen as pellets in liquid nitrogen and kept at −80° C. for long term storage. Total protein content was estimated by measuring UV absorbance at 280 nm on a NanoDrop 1000 spectrophotometer.
CYP71CU1-microsome assays contained 1 mg/mL of CYP71CU1-microsomes, 1 mM NADPH, 30 or 50 μM of substrate and 100 mM NaCl in sodium phosphate buffer (50 mM, pH 7.4). Assays with microsomes from WAT11 harboring an empty vector or lacking NADPH served as negative controls. […] Enzyme assays with both CYP71CU1-microsomes and OMT1 contained 1 mg/mL of CYP71CU1-microsomes, 1 mM NADPH, 10 μg/mL of purified OMT1, 1 mM SAM, 30 or 50 μM of substrate and 100 mM NaCl in sodium phosphate buffer (50 mM, pH 7.4).
All substrates [(−)-matairesinol, (−)-arctigenin, (−)-pluviatolide, (−)-5′-desmethoxy-yatein, (−)-yatein, (−)-deoxypodophyllotoxin, and (−)-podophyllotoxin] were derived from a 100% DMSO stock; final concentration of DMSO in enzyme assays was kept constant at 5%. Total reaction volumes were 50 μL. Reactions were initiated by the addition of enzyme and incubated at 30° C.
After 2 h of incubation, reactions were quenched by the addition of 1 volume of acetonitrile with 0.1% TFA and clarified by centrifugation for 10 min at 17,000 g.

For `COc1cc(C2OCC3C(c4ccc(O)c(OC)c4)OCC23)ccc1O` (single isomer, unassigned; (+)) [(+)-pinoresinol], the “acceptance as substrate by OMT3” value in series [1] is given as “did not turn over”.

Take `COc1ccc(C[C@H]2C(=O)OC[C@@H]2Cc2ccc3c(c2)OCO3)cc1OC` [(−)-5′-desmethoxy-yatein]: the “activity of 2-ODD on substrate, compared to (−)-yatein” value on 2-ODD was “some activity”. Moreover, the “activity of CYP71BE54-enriched microsomes on substrate” value on CYP71BE54 is reported as “No activity”.

Regarding `COc1cc(C[C@H]2C(=O)OC[C@@H]2Cc2ccc(OC)c(OC)c2)ccc1O` [(−)-arctigenin], in series [1], the “acceptance as substrate by OMT3” value is given as “much lower efficiency”. The “activity of OMT1 on substrate” value in the series on OMT1 is on record as “not active”. Further, the “activity of CYP71CU1 on substrate” value on CYP71CU1 is reported as “not active”.

Turning to `COc1cc(C[C@H]2COC(=O)[C@@H]2Cc2ccc(O)c(OC)c2)ccc1O` [(−)-matairesinol], the “acceptance as substrate by OMT3” value in series [1] is listed as “much lower efficiency”. For the same molecule, the “activity of OMT1 on substrate” value in the series with OMT1 is “not active”. The “activity of CYP71CU1 on substrate” value at CYP71CU1 is listed as “not active”.

As usually defined, the kcat is the maximal rate divided by the concentration of active sites. Broadly, the Km is the concentration of substrate that gives half-maximal velocity. Consider `COc1cc(C[C@H]2C(=O)OC[C@@H]2Cc2ccc3c(c2)OCO3)ccc1O` [(−)-pluviatolide], for which the kcat in series [1] ((−)-pluviatolide methylation by OMT3 purified from E. coli, 1 mM SAM, 22° C., pH 7.4) was determined as 0.72 s⁻¹. Besides, the Km in series [1] ((−)-pluviatolide methylation by OMT3 purified from E. coli, 1 mM SAM, 22° C., pH 7.4, read-out: apparent Km) is 1400 nM. In addition, the “activity of OMT1 on substrate” value with OMT1 is reported as “not active”. Besides, the “activity of 2-ODD on substrate, compared to (−)-yatein” value on 2-ODD is “negligible activity”. Moreover, the “activity of CYP71CU1 on substrate” value at CYP71CU1 is “not active”.

As to `COc1cc([C@@H]2c3cc4c(cc3[C@H](O)[C@H]3COC(=O)[C@H]23)OCO4)cc(OC)c1OC` [(−)-podophyllotoxin], at CYP71BE54, the “activity of CYP71BE54-enriched microsomes on substrate” value is on record as “No activity”.

As to `COc1cc(C[C@H]2C(=O)OC[C@@H]2Cc2ccc3c(c2)OCO3)cc(OC)c1OC` [(−)-yatein], at CYP71BE54, the “activity of CYP71BE54-enriched microsomes on substrate” value is “No activity”.
